pIC50: −log10 of the molar value.

T1 sequence (P00533 25-1210 T790M/C797S/L858R): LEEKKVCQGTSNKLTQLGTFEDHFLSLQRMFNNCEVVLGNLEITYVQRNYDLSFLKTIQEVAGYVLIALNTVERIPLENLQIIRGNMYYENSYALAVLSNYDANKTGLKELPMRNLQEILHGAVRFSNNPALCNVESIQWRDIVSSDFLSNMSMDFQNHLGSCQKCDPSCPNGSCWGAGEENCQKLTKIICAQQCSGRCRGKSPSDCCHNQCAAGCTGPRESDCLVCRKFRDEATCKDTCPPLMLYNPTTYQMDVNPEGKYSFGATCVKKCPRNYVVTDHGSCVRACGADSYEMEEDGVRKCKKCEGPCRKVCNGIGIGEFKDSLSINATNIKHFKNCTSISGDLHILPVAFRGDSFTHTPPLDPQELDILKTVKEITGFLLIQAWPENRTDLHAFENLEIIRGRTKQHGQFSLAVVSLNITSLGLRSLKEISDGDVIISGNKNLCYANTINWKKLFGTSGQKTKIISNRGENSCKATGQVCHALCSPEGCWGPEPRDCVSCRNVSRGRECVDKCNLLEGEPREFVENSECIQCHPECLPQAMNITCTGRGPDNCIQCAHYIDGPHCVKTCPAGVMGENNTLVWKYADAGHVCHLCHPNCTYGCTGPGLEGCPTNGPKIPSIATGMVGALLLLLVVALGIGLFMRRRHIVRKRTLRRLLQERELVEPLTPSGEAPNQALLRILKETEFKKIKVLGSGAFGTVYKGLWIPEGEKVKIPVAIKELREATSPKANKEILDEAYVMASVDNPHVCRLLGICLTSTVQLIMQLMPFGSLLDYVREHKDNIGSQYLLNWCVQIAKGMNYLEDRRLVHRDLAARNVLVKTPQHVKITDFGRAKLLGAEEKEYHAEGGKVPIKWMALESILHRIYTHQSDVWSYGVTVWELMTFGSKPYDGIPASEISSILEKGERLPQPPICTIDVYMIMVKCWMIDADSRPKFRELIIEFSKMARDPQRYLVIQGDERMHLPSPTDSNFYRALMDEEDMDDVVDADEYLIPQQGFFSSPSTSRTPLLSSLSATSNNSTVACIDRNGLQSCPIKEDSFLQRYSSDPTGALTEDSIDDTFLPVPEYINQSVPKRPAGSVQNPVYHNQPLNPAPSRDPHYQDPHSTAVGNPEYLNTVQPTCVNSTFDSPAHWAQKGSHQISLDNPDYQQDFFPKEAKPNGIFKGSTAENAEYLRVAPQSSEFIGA

This experiment has as its target T1, EGFR TMLRCS (BaF3-TMLRCS cell line) (Homo sapiens, UniProt P00533, C797S/L858R/T790M).
T1 construct: host or cells: Ba/F3 (BaF3-TMLRCS), puromycin-selected
Description: HTRF Phospho EGFR TMLRCS assay (cellular). It is filed as cell-based. Conditions: BaF3-TMLRCS cells, 4 hours incubation. Here is the method:
HTRF Phospho EGFR TMLRCS Assay (Cellular)
BaF3-TMLRCS cell line were obtained from Crownbio (San Diego, Calif., USA). Cells were maintained at 37° C., 5% CO2 in RPMI ATCC (Gibco 31870)+2 mM Glutamine+0.5 μg/ml Puromycin supplemented with 10% fetal bovine serum (FBS) (Gibco).
Cells are transferred as above to Greiner Bio-One, Nr. 784-08 micro-titerplate at 20000 cells/well in 12.5 μl of growth medium/well after the plates had been pre-filled with 12.5 nl of DMSO solutions of the to be tested compounds (in dose response) or DMSO only. After spinning the plates at 300×g for 30 seconds the cells were incubated for 4 hours at 37 C, 5% CO2, 95% humidity. The cells were lysed by adding to the compound mix 4 μl/well of the supplemented lysis buffer (Cis-bio, Phospho-EGFR HTRF kit, 64EG1PEH), followed by incubation for 30 min at room temperature with shaking (400 rpm). The plates were then frozen and stored overnight at −80 C. On the next day and after thawing the plates, 4 μl of a mixture of anti-Phospho-EGFR Cryptate and of anti-Phospho-EGFR-d2 antibody solutions prepared in the supplied detection buffer was added to each well. The lidded plates were then incubated for 4 h at room temperature before reading the fluorescence emission at 616 and 665 nm using an Envision reader (Perkin Elmer). Data was analyzed in similar fashion as above using the normalized ratio of the 665 to 616 signals multiplied by 10000.
In the case of `O=C(Nc1nccs1)C(c1ncn2c1C[C@@H](F)C2)N1Cc2c(cc(C#Cc3ccc(CN4CC5(CC(O)C5)C4)cc3)cc2C(F)(F)F)C1=O` (mixture of isomers) [Example 9, (2RS)-2-[(6R)-6-Fluoro-6,7-dihydro-5H-pyrrolo[1,2-c]imidazol-1-yl]-2-[6-[2-[4-[(6-hydroxy-2-azaspiro[3.3]heptan-2-yl)methyl]phenyl]ethynyl]-1-oxo-4-(trifluoromethyl)isoindolin-2-yl]-N-thiazol-2-yl-acetamide], the negative-log IC50 (pIC50) (usually the negative decadic logarithm of the IC50, by convention in mol/L) was 8.52.
To `O=C(Nc1nccs1)C(c1ncn2c1C[C@@H](F)C2)N1Cc2c(cc(C#Cc3ccc(CN4CCC(CO)CC4)cc3)cc2C(F)(F)F)C1=O` (mixture of isomers) [Example 6, (2RS)-2-[(6R)-6-Fluoro-6,7-dihydro-5H-pyrrolo[1,2-c]imidazol-1-yl]-2-[6-[2-[4-[[4-(hydroxymethyl)-1-piperidyl]methyl]phenyl]ethynyl]-1-oxo-4-(trifluoromethyl)isoindolin-2-yl]-N-thiazol-2-yl-acetamide] belongs 9.00; to `CCN1CCC(c2ccc(-c3cc4c(c(C(F)F)c3)CN(C(C(=O)Nc3nccs3)c3ncn5c3C[C@@H](F)C5)C4=O)cc2)CC1` (mixture of isomers) [Example 7, (2RS)-2-[4-(Difluoromethyl)-6-[4-(1-ethyl-4-piperidyl)phenyl]-1-oxo-isoindolin-2-yl]-2-[(6R)-6-fluoro-6,7-dihydro-5H-pyrrolo[1,2-c]imidazol-1-yl]-N-thiazol-2-yl-acetamide], 7.80; to `O=C(Nc1nccs1)C(c1ncn2c1C[C@@H](F)C2)N1Cc2c(cc(C#Cc3ccc(CN4CCCC(O)CC4)cc3)cc2C(F)(F)F)C1=O` (mixture of isomers) [Example 11, (2RS)-2-[(6R)-6-fluoro-6,7-dihydro-5H-pyrrolo[1,2-c]imidazol-1-yl]-2-[6-[2-[4-[[(4RS)-4-hydroxyazepan-1-yl]methyl]phenyl]ethynyl]-1-oxo-4-(trifluoromethyl)isoindolin-2-yl]-N-thiazol-2-yl-acetamide], 8.70.
`O=C(Nc1nccs1)C(c1ncn2c1CCC2)N1Cc2c(cc(C#Cc3ccc(CN4CCC(CO)CC4)cc3)cc2C(F)(F)F)C1=O` (racemic) [Example 3, (2RS)-2-(6,7-Dihydro-5H-pyrrolo[1,2-c]imidazol-1-yl)-2-[6-[2-[4-[[4-(hydroxymethyl)-1-piperidyl]methyl]phenyl]ethynyl]-1-oxo-4-(trifluoromethyl)isoindolin-2-yl]-N-thiazol-2-yl-acetamide] had a pIC50 of 9.00.
Take `CCN1CCC(c2ccc(-c3cc4c(c(C(F)F)c3)CN(C(C(=O)Nc3nccs3)c3ncn5c3CCC5)C4=O)cc2)[C@@H](F)C1` (mixture of isomers) [Example 8, (2RS)-2-[4-(Difluoromethyl)-6-[4-1(3R,4R)-1-ethyl-3-fluoro-4-piperidyl]phenyl]-1-oxo-isoindolin-2-yl]-2-(6,7-dihydro-5H-pyrrolo[1,2-c]imidazol-1-yl)-N-thiazol-2-yl-acetamide and (2RS)-2-[4-(difluoromethyl)-6-[4-1(3S,4S)-1-ethyl-3-fluoro-4-piperidyl]phenyl]-1-oxo-isoindolin-2-yl]-2-(6,7-dihydro-5H-pyrrolo[1,2-c]imidazol-1-yl)-N-thiazol-2-yl-acetamide]: the pIC50 is 7.74.
In turn, `CCN1CCC(c2ccc(-c3cc4c(c(C(F)F)c3)CN(C(C(=O)Nc3nccs3)c3ncn5c3CCC5)C4=O)cc2)CC1` (racemic) [Example 4, (2RS)-2-[4-(Difluoromethyl)-6-[4-(1-ethyl-4-piperidyl)phenyl]-1-oxo-isoindolin-2-yl]-2-(6,7-dihydro-5H-pyrrolo[1,2-c]imidazol-1-yl)-N-thiazol-2-yl-acetamide] showed a pIC50 of 7.96.
In turn, `O=C(Nc1nccs1)C(c1ncn2c1CCC2)N1Cc2c(cc(C#Cc3ccc(CN4CCC(CO)CC4)cc3)cc2C(F)F)C1=O` (racemic) [Example 5, (2RS)-2-[4-(Difluoromethyl)-6-[2-[4-[[4-(hydroxymethyl)-1-piperidyl]methyl]phenyl]ethynyl]-1-oxo-isoindolin-2-yl]-2-(6,7-dihydro-5H-pyrrolo[1,2-c]imidazol-1-yl)-N-thiazol-2-yl-acetamide] had a pIC50 of 8.52.
To `CCN1CCC(c2ccc(-c3cc4c(c(C(F)(F)F)c3)CN(C(C(=O)Nc3nccs3)c3ncn5c3CCC5)C4=O)cc2)CC1` (racemic) [Example 2, (2RS)-2-(6,7-Dihydro-5H-pyrrolo[1,2-c]imidazol-1-yl)-2-[6-[4-(1-ethyl-4-piperidyl)phenyl]-1-oxo-4-(trifluoromethyl)isoindolin-2-yl]-N-thiazol-2-yl-acetamide] belongs 7.70.
As to `O=C(Nc1nccs1)C(c1ncn2c1C[C@@H](F)C2)N1Cc2c(cc(C#Cc3ccc(CN4CCC(CO)CC4)cc3)cc2C(F)F)C1=O` (mixture of isomers) [Example 10, (2RS)-2-[4-(Difluoromethyl)-6-[2-[4-[[4-(hydroxymethyl)-1-piperidyl]methyl]phenyl]ethynyl]-1-oxo-isoindolin-2-yl]-2-[(6R)-6-fluoro-6,7-dihydro-5H-pyrrolo[1,2-c]imidazol-1-yl]-N-thiazol-2-yl-acetamide], the pIC50 was 8.70.

(Values after patent publication US20220315591A1, “NEW EGFR INHIBITORS” (Hoffmann-La Roche Inc., priority 2019, published 2022).)
